Consider six molecules from ChEMBL document CHEMBL3120132, “Antiviral compounds for the treatment of HCV” (ACS Med Chem Lett, 2014).

pIC50: −log10 of the molar value.

This assay deals with Hepatitis C virus. The assay can be described thus: Antiviral activity against Hepatitis C virus Con1 genotype 1b expressing NS3 infected in human 2209-23 cells assessed as inhibition of viral replication after 72 hrs by luciferase reporter gene assay. Type of assay: functional, organism-based, Hepacivirus hominis. The conditions noted are these: isolate Con1, 2209-23, 72 h.
A word on the pIC50: it is the negative decadic logarithm of the IC50, by convention in mol/L. As to `CCOC(=O)[C@@H]1C[C@H](NC(=O)c2ccc3ccccc3c2O)CN1CC(C)C`, the pIC50 was 10.26.
Consider `CCOC(=O)[C@@H]1C[C@H](NC(=O)c2ccc3ccccc3c2O)CN1CC1CCC1`, for which the pIC50 is 10.28.
On to `CCOC(=O)[C@@H]1C[C@H](NC(=O)c2ccc3ccccc3c2O)CN1CC1CCCC1`, for which the pIC50 is 10.54.
Take `COC(=O)[C@@H]1C[C@H](NC(=O)c2ccc3ccccc3c2O)CN1Cc1ccccc1`: the pIC50 was 10.10.
`COC(=O)[C@@H]1C[C@H](NC(=O)c2ccc3ccccc3c2O)CN1CCC(C)(C)C`: the pIC50 is 10.29.
Consider `COC(=O)[C@@H]1C[C@H](NC(=O)c2ccc3ccccc3c2O)CN1CC1CCCCC1`, for which the pIC50 is 10.33.
